From ChEMBL document CHEMBL5712086, “Spatially clustered loci with multiple enhancers are frequent targets of HIV-1 integration” (Nat Commun, 2019) come the findings set out here.

Experiment [1] deals with CD4+ T cell. Put plainly: Effect on HIV-1 insertion biases in human CD+ T cells assessed as insertion rate per chromosome at 500 nM incubated for 6 hrs. The experiment is classed as functional, cell-based. The following applies: Human immunodeficiency virus 1.
Experiment [2] concerns CD4+ T cell. Put plainly: Upregulation of protein-coding genes proximal to super enhancers in activated human CD+ T cells at 500 nM incubated for 6 hrs by transcriptional profiling relative to coding genes without SE. The experiment is classed as functional, cell-based.
The test system of experiment [3] is CD4+ T cell. The experiment can be described thus: Down regulation of protein-coding genes proximal to super enhancers in activated human CD+ T cells at 500 nM incubated for 6 hrs by transcriptional profiling relative to coding genes without SE. In kind it is functional, cell-based.
Experiment [4] deals with T1, Bromodomain and extra-terminal motif (BET) (Homo sapiens) (UniProt P25440+O60885+Q58F21+Q15059). As to conditions: CD4+ T cell, dose 500.0 nM, time 20.0 hrs.
In experiment [5] the test system is CD4+ T cell. Put plainly: Effect on spatial localization of HIV-1 in human CD+ T cells at 500 nM incubated for 6 hrs followed by infection for 72 hrs by 3D immuno-DNA FISH assay. In kind it is functional, cell-based. The following applies: Human immunodeficiency virus 1, time 78.0 hrs.
Experiment [6] concerns the target T1, Bromodomain and extra-terminal motif (BET) (Homo sapiens). As to conditions: CD4+ T cell, dose 500.0 nM, time 20.0 hrs. This is another data set of the same source.
Experiment [7] concerns CD4+ T cell. Put plainly: Effect on spatial localization of recurrent integration genes of HIV-1 in human CD+ T cells at 500 nM incubated for 6 hrs followed by infection for 72 hrs by 3D immuno-DNA FISH assay. In kind it is functional, cell-based. As to conditions: Human immunodeficiency virus 1, time 78.0 hrs.

Activity calls are given as the source filed them. The rule behind the calls is not given here.

`Cc1sc2c(c1C)C(c1ccc(Cl)cc1)=N[C@@H](CC(=O)OC(C)(C)C)c1nnc(C)n1-2`: the outcome in the experiment with CD4+ T cell [1], with CD4+ T cell [5] and in the experiment with CD4+ T cell [7] was inactive. The outcome in the experiment on CD4+ T cell [2] and with CD4+ T cell [3] was Active. The inhibition result in experiment [4] and in experiment [6] was “Active” throughout.
